Columns and labels:
PC12 cells = assay: MTT assay of mitochondrial function; type: cell-based, rat
Method: A colorimetric assay measuring the number and respiratory activity of surviving cells (Mossman, 1983) was used to monitor the effect of the synthetic peptides on PC12 cells. Culture plates (96-233, Flow, flat bottom) were seeded with 4,000 cells per well and received treatment identical to the cells read for neurite formation. At the indicated times, the medium was removed from the wells with a Pasteur pipette and replaced with 110 μl of RPMI+10% fetal calf serum containing 0.45 mg·ml^−1 MTT (Sigma) and the plate were returned to a humidified, 5% CO2 incubator for 4 hours. 100 μl of 0.4N HCl in isopropanol was then added to each well with trituration (approximately 50 times) to solublize the formazan. The plates were read 10 minutes later in a flow Titertek Multiskan equipped with a 570 nm filter, and the optical density values obtained were corrected for cell-free blank. In each experiment, the values are the average of at least triplicate determinations normalized to its control. The MTT dye conversion was linear with number of viable cells over the range seeded, i.e. 2000 to 10,000 cells per well.

p75^NTR = target: T1, p75^NTR (Rattus norvegicus, UniProt P07174); assay: [125I]NGF affinity cross-linking to p75NTR; type: binding; settings: PC12 cells, 50 μM R3
T1 construct: endogenous in cells; host or cells: PC12
T1 sequence (P07174 30-425): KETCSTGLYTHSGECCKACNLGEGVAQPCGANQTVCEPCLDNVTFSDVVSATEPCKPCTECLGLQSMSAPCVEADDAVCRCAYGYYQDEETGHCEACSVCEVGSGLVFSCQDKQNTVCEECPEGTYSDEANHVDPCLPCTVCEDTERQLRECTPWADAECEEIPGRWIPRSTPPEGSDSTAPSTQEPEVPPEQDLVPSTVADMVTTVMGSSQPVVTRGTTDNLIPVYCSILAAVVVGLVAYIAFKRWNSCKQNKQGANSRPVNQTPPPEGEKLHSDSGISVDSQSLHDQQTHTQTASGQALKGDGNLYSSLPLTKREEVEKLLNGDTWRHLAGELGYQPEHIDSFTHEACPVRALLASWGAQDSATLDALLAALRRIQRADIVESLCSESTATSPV
Method: FIG. 7A illustrates the influence of peptide R3 on affinity cross-linking of TrkA and p75^NTR. Intact PC12 cells were treated with 50 μM R3 for 24 h (preinc.) in medium, harvested with CMF medium, and suspended at a concentration of 10^6·ml^−1 (or 10^7·m^−1 for immunoprecipitation studies) in HKR buffer. Cells were then incubated in the presence or absence of R3 (coinc.) for 15 min at 37° C. and cooled in ice. Cross-linking was performed by incubating cells with 1 nM [^125I]-NGF for 2 h at 4° C., adding EDC ([…]) and NHS (2 mM) or BS^3 (0.4 mM) as indicated, and incubating for 30 min at 25° C. Cells were washed three times in HKR buffer and the pellet dissolved in reducing SDS sample buffer or in lysis buffer (1% NP-40, 10% glycerol, 1 mM PMSF, 10 μg-ml^−1 aprotinin, 1 μg/ml leupeptin, […] o-vanadate in TBS) for immunoprecipitation (lanes 4 and 8). For immunoprecipitation, the cellular debris was removed by centrifugation and the supernatant incubated with 1 μg anti-p75^NTR monoclonal Ab 192 (Cedarlane Laboratories Ltd.) or 1 μg anti-TrkA polyclonal Ab (a gift from Dr. W. Mobley, University of California, San Francisco) for 4 h at 4° C. Immunoprecipates were isolated by incubating with 50 μl of a 50% solution of protein A-SEPHAROSE™ (anti-Trk) or goat anti-mouse agarose (Ab 192) for 2 h at 4° C. Precipitates were washed 3 times in lysis buffer and dissolved in sample buffer. […]

Question: Which results are given for LDALLAALRRIQR [R3]?
Answer: Mitochondrial succinate dehydrogenase activity (MTT), in words (PC12 cells): not enhanced; Affinity cross-linking of [125I]NGF to p75NTR monomers or homodimers, in words (p75^NTR): not affected
